Test results taken from patent US6737383B1, “Herbicidal oxadiazolidines” (priority 1999, dated 2004).

Key:
soybean = assay: Test B pre/postemergence soybean; assay type: in vivo, Glycine max
How it was run: (§1)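 Herbicidal effect was estimated by eye on a ten-point control scale after plants spent twelve to sixteen days in a greenhouse following soil or foliar treatment. Foliar sprays targeted plants at one to four leaves; all doses were formulated in a non-phytotoxic solvent with surfactant.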

duck salad = assay: Test B flood test duck salad; assay type: in vivo, Heteranthera limosa
How it was run: (§2)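 Each value is a visual injury score relative to controls, with 10 meaning complete control and 0 no effect. Evaluation took place twelve to sixteen days after the 2-leaf-stage plants were treated and kept in the greenhouse.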

sugar beet = assay: Test B pre/postemergence sugar beet; assay type: in vivo, Beta vulgaris
How it was run: as §1

wild oat = assay: Test B pre/postemergence wild oat; assay type: in vivo, Avena fatua
How it was run: as §1

cocklebur = assay: Test B pre/postemergence cocklebur; assay type: in vivo, Xanthium strumarium
How it was run: as §1

morningglory = assay: Test B pre/postemergence morningglory; assay type: in vivo, Ipomoea hederacea
How it was run: as §1

purple nutsedge = assay: Test B pre/postemergence purple nutsedge; assay type: in vivo, Cyperus rotundus
How it was run: as §1

rice = assay: Test B flood test rice; assay type: in vivo, Oryza sativa
How it was run: as §2

bamyardgrass = assay: Test B flood test barnyardgrass; assay type: in vivo, Echinochloa crus-galli
How it was run: as §2

wheat = assay: Test B pre/postemergence wheat; assay type: in vivo, Triticum aestivum
How it was run: as §1

giant foxtail = assay: Test B pre/postemergence giant foxtail; assay type: in vivo, Setaria faberii
How it was run: as §1

velvetleaf = assay: Test B pre/postemergence velvetleaf; assay type: in vivo, Abutilon theophrasti
How it was run: as §1

smallflower flatsedge = assay: Test B flood test smallflower flatsedge; assay type: in vivo, Cyperus difformis
How it was run: as §2

rape = assay: Test B pre/postemergence rape; assay type: in vivo, Brassica napus
How it was run: as §1

pigweed = assay: Test B pre/postemergence pigweed; assay type: in vivo, Amaranthus retroflexus
How it was run: as §1

blackgrass = assay: Test B pre/postemergence blackgrass; assay type: in vivo, Alopecurus myosuroides
How it was run: as §1

[1] = Postemergence, Rate 250 g/ha, scale 0 to 10, 0 is no effect, 10 is complete control
[2] = Postemergence, Rate 500 g/ha, scale of 0 to 10 where 0 is no effect and 10 is complete control
[3] = Preemergence, Rate 62 g/ha, scale 0 to 10 (0 no effect, 10 complete control)
[4] = Preemergence, Rate 125 g/ha, scale of 0 to 10 where 0 is no effect and 10 is complete control
[5] = Preemergence, Rate 250 g/ha, scale 0 to 10, 0 is no effect, 10 is complete control
[6] = Preemergence, Rate 500 g/ha, scale 0 to 10, 0 is no effect, 10 is complete control
[7] = Rate 62 g/ha, Postemergence, scale of 0 to 10 where 0 is no effect and 10 is complete control
[8] = Rate 62 g/ha, flood test species, Pre-emergence, visual evaluation after twelve to sixteen days
[9] = Rate 125 g/ha, under heading Pre-emergence, flood test species, visual evaluation after twelve to sixteen days
[10] = Rate 250 g/ha, Pre-emergence, flood-test species, scale 0 to 10, 0 is no effect, 10 is complete control
[11] = Rate 500 g/ha, Pre-emergence, flood test species, scale 0 to 10 (0 no effect, 10 complete control)
[12] = Postemergence, Rate 125 g/ha, scale 0 to 10, 0 is no effect, 10 is complete control
[13] = Preemergence, Rate 250 g/ha, scale of 0 to 10 where 0 is no effect and 10 is complete control
[14] = Postemergence (flood test), Rate 125 g/ha, scale 0 to 10, 0 is no effect, 10 is complete control
[15] = Postemergence section (flood test species), Rate 500 g/ha, scale of 0 to 10 where 0 is no effect and 10 is complete control
[16] = Rate 62 g/ha, Postemergence (flood test species), scale of 0 to 10 where 0 is no effect and 10 is complete control
[17] = flood test species, listed under Postemergence, Rate 250 g/ha, scale 0 to 10, 0 is no effect, 10 is complete control

CC(C)N(C(=O)n1oc(=O)n(CC#N)c1=O)c1ccc(F)cc1 [Compound 395]
5: Plant response rating, Giant foxtail (giant foxtail; [1]) | Blackgrass plant response rating (blackgrass; [2])
3: Wild oats plant response rating (wild oat; [2]) | Wheat plant response rating (wheat; [2]) | Plant response rating, Giant foxtail (giant foxtail; [12])
0: Plant response rating, Soybean (soybean; [3]) | Plant response rating, Soybean (soybean; [4]) | Soybean plant response rating (soybean; [5]) | Soybean plant response rating (soybean; [6]) | Soybean plant response rating (soybean; [7]) | Plant response rating, Ducksalad (0 to 10 scale, 0 is no effect, 10 is complete control) (duck salad; [8]) | Ducksalad plant response rating (0 to 10 scale, 0 is no effect, 10 is complete control) (duck salad; [9]) | Ducksalad plant response rating (duck salad; [10]) | Ducksalad plant response rating (duck salad; [11]) | Plant response rating, Sugarbeets (sugar beet; [1]) | Sugarbeets plant response rating (sugar beet; [2]) | Plant response rating, Sugarbeets (sugar beet; [3]) | Plant response rating, Sugarbeets (sugar beet; [4]) | Sugarbeets plant response rating (sugar beet; [5]) | Sugarbeets plant response rating (sugar beet; [6]) | Sugarbeets plant response rating (sugar beet; [7]) | Plant response rating, Wild oats (wild oat; [3]) | Plant response rating, Wild oats (wild oat; [4]) | Wild oats plant response rating (wild oat; [5]) | Wild oats plant response rating (wild oat; [6]) | Wild oats plant response rating (wild oat; [7]) | Plant response rating, Cocklebur (cocklebur; [12]) | Plant response rating, Cocklebur (cocklebur; [1]) | Cocklebur plant response rating (cocklebur; [2]) | Plant response rating, Cocklebur (cocklebur; [3]) | Plant response rating, Cocklebur (cocklebur; [4]) | Cocklebur plant response rating (cocklebur; [5]) | Cocklebur plant response rating (cocklebur; [6]) | Cocklebur plant response rating (cocklebur; [7]) | Plant response rating, Morningglory (morningglory; [1]) | Plant response rating, Morningglory (morningglory; [3]) | Plant response rating, Morningglory (morningglory; [4]) | Morningglory plant response rating (morningglory; [5]) | Morningglory plant response rating (morningglory; [6]) | Morningglory plant response rating (morningglory; [7]) | Plant response rating, Nutsedge (purple nutsedge; [1]) | Nutsedge plant response rating (purple nutsedge; [2]) | Plant response rating, Nutsedge (purple nutsedge; [3]) | Plant response rating, Nutsedge (purple nutsedge; [4]) | Nutsedge plant response rating (purple nutsedge; [5]) | Nutsedge plant response rating (purple nutsedge; [6]) | Nutsedge plant response rating (purple nutsedge; [7]) | Plant response rating, Rice (0 to 10 scale, 0 is no effect, 10 is complete control) (rice; [8]) | Rice plant response rating (0 to 10 scale, 0 is no effect, 10 is complete control) (rice; [9]) | Rice plant response rating (rice; [10]) | Rice plant response rating (rice; [11]) | Plant response rating, Barnyardgrass (0 to 10 scale, 0 is no effect, 10 is complete control) (bamyardgrass; [8]) | Barnyardgrass plant response rating (0 to 10 scale, 0 is no effect, 10 is complete control) (bamyardgrass; [9]) | Barnyardgrass plant response rating (bamyardgrass; [10]) | Barnyardgrass plant response rating (bamyardgrass; [11]) | Plant response rating, Wheat (wheat; [3]) | Plant response rating, Wheat (wheat; [4]) | Wheat plant response rating (wheat; [5]) | Wheat plant response rating (wheat; [6]) | Wheat plant response rating (wheat; [7]) | Plant response rating, Giant foxtail (giant foxtail; [3]) | Plant response rating, Giant foxtail (giant foxtail; [4]) | Giant foxtail plant response rating (giant foxtail; [5]) | Giant foxtail plant response rating (giant foxtail; [7]) | Plant response rating, Velvetleaf (velvetleaf; [3]) | Plant response rating, Velvetleaf (velvetleaf; [4]) | Velvetleaf plant response rating (velvetleaf; [5]) | Velvetleaf plant response rating (velvetleaf; [6]) | Velvetleaf plant response rating (velvetleaf; [7]) | Plant response rating, S. Flatsedge (0 to 10 scale, 0 is no effect, 10 is complete control) (smallflower flatsedge; [8]) | S. Flatsedge plant response rating (0 to 10 scale, 0 is no effect, 10 is complete control) (smallflower flatsedge; [9]) | S. Flatsedge plant response rating (smallflower flatsedge; [10]) | S. Flatsedge plant response rating (smallflower flatsedge; [11]) | Plant response rating, Rape (rape; [1]) | Plant response rating, Rape (rape; [3]) | Plant response rating, Rape (rape; [4]) | Rape plant response rating (rape; [5]) | Rape plant response rating (rape; [6]) | Rape plant response rating (rape; [7]) | Plant response rating, Redroot pigweed (pigweed; [1]) | Redroot pigweed plant response rating (pigweed; [2]) | Plant response rating, Redroot pigweed (pigweed; [3]) | Plant response rating, Redroot pigweed (pigweed; [4]) | Redroot pigweed plant response rating (pigweed; [5]) | Redroot pigweed plant response rating (pigweed; [6]) | Redroot pigweed plant response rating (pigweed; [7]) | Plant response rating, Blackgrass (blackgrass; [12]) | Plant response rating, Blackgrass (blackgrass; [1]) | Plant response rating, Blackgrass (blackgrass; [3]) | Plant response rating, Blackgrass (blackgrass; [4]) | Blackgrass plant response rating (blackgrass; [13]) | Blackgrass plant response rating (blackgrass; [6]) | Blackgrass plant response rating (blackgrass; [7])
6: Giant foxtail plant response rating (giant foxtail; [2])
2: Giant foxtail plant response rating (giant foxtail; [6]) | Plant response rating, Velvetleaf (velvetleaf; [1]) | Velvetleaf plant response rating (velvetleaf; [2])
1: Plant response rating, Soybean (soybean; [1]) | Soybean plant response rating (soybean; [2])

CC(C)N(C(=O)n1oc(=O)n(CC2(C)COC2)c1=O)c1ccccc1 [Compound 420]
8: Morningglory plant response rating (morningglory; [6]) | Plant response rating, Giant foxtail (giant foxtail; [12]) | Plant response rating, Giant foxtail (giant foxtail; [1]) | Rape plant response rating (rape; [6]) | Plant response rating, Blackgrass (blackgrass; [4]) | Blackgrass plant response rating (blackgrass; [13])
0: Plant response rating, Soybean (soybean; [3]) | Plant response rating, Soybean (soybean; [4]) | Soybean plant response rating (soybean; [5]) | Soybean plant response rating (soybean; [6]) | Plant response rating, Ducksalad (duck salad; [14]) | Ducksalad plant response rating (duck salad; [15]) | Ducksalad plant response rating (duck salad; [16]) | Plant response rating, Ducksalad (duck salad; [17]) | Plant response rating, Sugarbeets (sugar beet; [1]) | Sugarbeets plant response rating (sugar beet; [2]) | Plant response rating, Sugarbeets (sugar beet; [3]) | Plant response rating, Sugarbeets (sugar beet; [4]) | Plant response rating, Wild oats (wild oat; [3]) | Plant response rating, Cocklebur (cocklebur; [12]) | Plant response rating, Cocklebur (cocklebur; [1]) | Cocklebur plant response rating (cocklebur; [2]) | Plant response rating, Cocklebur (cocklebur; [3]) | Plant response rating, Cocklebur (cocklebur; [4]) | Cocklebur plant response rating (cocklebur; [5]) | Cocklebur plant response rating (cocklebur; [6]) | Cocklebur plant response rating (cocklebur; [7]) | Plant response rating, Morningglory (morningglory; [3]) | Plant response rating, Morningglory (morningglory; [4]) | Plant response rating, Nutsedge (purple nutsedge; [1]) | Nutsedge plant response rating (purple nutsedge; [2]) | Plant response rating, Nutsedge (purple nutsedge; [3]) | Plant response rating, Nutsedge (purple nutsedge; [4]) | Nutsedge plant response rating (purple nutsedge; [5]) | Rice plant response rating (rice; [15]) | Plant response rating, Rice (rice; [17]) | Plant response rating, Barnyardgrass (bamyardgrass; [14]) | Barnyardgrass plant response rating (bamyardgrass; [15]) | Barnyardgrass plant response rating (bamyardgrass; [16]) | Plant response rating, Barnyardgrass (bamyardgrass; [17]) | Plant response rating, Wheat (wheat; [3]) | Plant response rating, Wheat (wheat; [4]) | Plant response rating, Velvetleaf (velvetleaf; [1]) | Velvetleaf plant response rating (velvetleaf; [2]) | Plant response rating, Velvetleaf (velvetleaf; [3]) | S. Flatsedge plant response rating (smallflower flatsedge; [15]) | Plant response rating, S. Flatsedge (smallflower flatsedge; [17]) | Plant response rating, Rape (rape; [1]) | Rape plant response rating (rape; [2]) | Plant response rating, Rape (rape; [3]) | Plant response rating, Rape (rape; [4]) | Rape plant response rating (rape; [5]) | Plant response rating, Redroot pigweed (pigweed; [1]) | Redroot pigweed plant response rating (pigweed; [2]) | Plant response rating, Redroot pigweed (pigweed; [3]) | Blackgrass plant response rating (blackgrass; [7])
7: Wheat plant response rating (wheat; [6]) | Giant foxtail plant response rating (giant foxtail; [7]) | Velvetleaf plant response rating (velvetleaf; [6])
9: Giant foxtail plant response rating (giant foxtail; [2]) | Plant response rating, Giant foxtail (giant foxtail; [4])
5: Wild oats plant response rating (wild oat; [6]) | Wheat plant response rating (wheat; [2]) | Plant response rating, Giant foxtail (giant foxtail; [3]) | Redroot pigweed plant response rating (pigweed; [6])
10: Morningglory plant response rating (morningglory; [2]) | Nutsedge plant response rating (purple nutsedge; [6]) | Giant foxtail plant response rating (giant foxtail; [5]) | Giant foxtail plant response rating (giant foxtail; [6]) | Blackgrass plant response rating (blackgrass; [6])
3: Plant response rating, Soybean (soybean; [1]) | Sugarbeets plant response rating (sugar beet; [6])
6: Velvetleaf plant response rating (velvetleaf; [5]) | Plant response rating, Blackgrass (blackgrass; [1]) | Blackgrass plant response rating (blackgrass; [2])
2: Sugarbeets plant response rating (sugar beet; [5]) | Wild oats plant response rating (wild oat; [2]) | Plant response rating, Wild oats (wild oat; [4]) | Wild oats plant response rating (wild oat; [5]) | Morningglory plant response rating (morningglory; [5]) | Wheat plant response rating (wheat; [5]) | Plant response rating, Velvetleaf (velvetleaf; [4]) | Plant response rating, Redroot pigweed (pigweed; [4]) | Redroot pigweed plant response rating (pigweed; [5]) | Plant response rating, Blackgrass (blackgrass; [12])
4: Soybean plant response rating (soybean; [2]) | Plant response rating, Morningglory (morningglory; [1]) | Plant response rating, Blackgrass (blackgrass; [3])
